Structures can show the parent of a compound that is named as a salt.
System: LPS-stimulated TNFα release from PBMCs
Experiment: LPS-stimulated PBMC TNFα release assay
Type: cell-based
Settings: inhibition of TNFα release, human PBMCs, LPS 10 ng/ml, 18 h, ELISA, read-out: p38α inhibition (IC50 values)
Protocol: LPS-Stimulated PBMC TNFα Release Assay.
Peripheral Blood Mononuclear Cells (PBMCs) were isolated from healthy human volunteer blood using a standard density gradient centrifugation technique. Citrated blood was placed onto Histopaque™ and centrifuged. The PBMCs were removed from the density gradient interface and washed in phosphate buffered saline (PBS). The PBMCs were suspended in RPMI 1640 medium (without serum), dispensed into a 96-well plate and incubated at 37° C. for 3 h in a humidified incubator. After incubation, the medium was replaced (with medium containing 1% foetal bovine serum) and the plate incubated at 37° C., for 1 h, in the presence of test compound or the appropriate vehicle. LPS (10 ng/ml), or an appropriate vehicle control, was then added to the cells and the plate returned to the incubator for 18 h. Cell-free supernatants were removed and assayed for TNFα levels using an ELISA kit from R&D Systems.
A dose response curve to each test compound was performed and the effect of compound in each experiment was expressed as a percentage inhibition of the control TNFα release. Dose response curves were plotted and compound potency (IC50) was determined. Compounds were tested in at least three separate experiments.

| SMILES | IC50 |
| --- | --- |
| Cc1ccc(-n2nc(C(C)(C)C)cc2NC(=O)N[C@H]2CC[C@@H](Oc3ccc4nnc(CCN5CCCC5)n4c3)c3ccccc32)cc1 [Example 1, 1-(5-tert-Butyl-2-p-tolyl-2H-pyrazol-3-yl)-3-{(1S,4R)-4-[3-(2-pyrrolidin-1-yl-ethyl)-[1,2,4]triazolo[4,3-a]pyridin-6-yloxy]-1,2,3,4-tetrahydro-naphthalen-1-yl}-urea] | 10 to 100 nM |
| Cc1ccc(-n2nc(C(C)(C)C)cc2NC(=O)N[C@H]2CC[C@@H](Oc3ccc4nnc(CCN5CCN(C)CC5)n4c3)c3ccccc32)cc1 [Example 2, 1-(5-tert-Butyl-2-p-tolyl-2H-pyrazol-3-yl)-3-((1S,4R)-4-{3-[2-(4-methyl-piperazin-1-yl)-ethyl]-[1,2,4]triazolo[4,3-a]pyridin-6-yloxy}-1,2,3,4-tetrahydro-naphthalen-1-yl)-urea formate salt] | 10 to 100 nM |
| Cc1ccc(-n2nc(C(C)(C)C)cc2NC(=O)N[C@H]2CC[C@@H](Oc3ccc4nnc(CN5CCN(C)CC5)n4c3)c3ccccc32)cc1 [Example 14, 1-(5-tert-Butyl-2-p-tolyl-2H-pyrazol-3-yl)-3-{(1S,4R)-4-[3-(4-methyl-piperazin-1-ylmethyl)-[1,2,4]triazolo[4,3-a]pyridin-6-yloxy]-1,2,3,4-tetrahydro-naphthalen-1-yl}-urea formate salt] | 10 to 100 nM |
| Cc1ccc(-n2nc(C(C)(C)C)cc2NC(=O)N[C@H]2CC[C@@H](Oc3ccc4nnc(CN5CCOCC5)n4c3)c3ccccc32)cc1 [Example 15, 1-(5-tert-Butyl-2-p-tolyl-2H-pyrazol-3-yl)-3-[(1S,4R)-4-(3-morpholin-4-ylmethyl-[1,2,4]triazolo[4,3-a]pyridin-6-yloxy)-1,2,3,4-tetrahydro-naphthalen-1-yl]-urea formate salt] | < 10 nM |
| Cc1ccc(-n2nc(C(C)(C)C)cc2NC(=O)N[C@H]2CC[C@@H](Oc3ccc4nnc(CN5CCCC5)n4c3)c3ccccc32)cc1 [Example 16, 1-(5-tert-Butyl-2-p-tolyl-2H-pyrazol-3-yl)-3-[(1S,4R)-4-(3-pyrrolidin-1-ylmethyl-[1,2,4]triazolo[4,3-a]pyridin-6-yloxy)-1,2,3,4-tetrahydro-naphthalen-1-yl]-urea] | < 10 nM |
| C[C@@H]1CCC[C@H](C)N1c1nnc2ccc(O[C@@H]3CC[C@H](NC(=O)NC4CC4)c4ccccc43)cn12 [Example 117, 1-Cyclopropyl-3-{(1S,4R)-4-[3-((2S,6R)-2,6-dimethyl-piperidin-1-yl)-[1,2,4]triazolo[4,3-a]pyridin-6-yloxy]-1,2,3,4-tetrahydro-naphthalen-1-yl}-urea formate salt] | < 10 nM |

Target: T1, p38alpha (Homo sapiens, UniProt Q16539)
T1 construct: purchased Invitrogen PV3304
Experiment: P38Alpha enzyme inhibition assay (Alphascreen kinase activity assay)
Type: biochemical
Settings: 100 pM p38alpha, 250 μM ATP, 2 hours pre-incubation at 25° C., read-out: p38α inhibition (IC50 values)
Protocol: P38Alpha Enzyme Inhibition Assay.
The inhibitory activity of compounds was determined using an Alphascreen® (Perkin Elmer) based kinase activity assay. Kinase reactions consisted of 25 mM HEPES pH 7.5, 10 mM MgCl2, 100 μM Na3VO4, 2 mM DTT, 0.05 mg/ml Tween 20, 100 pM p38alpha (Invitrogen, PV3304), 1% DMSO and 0.3 μg/ml ATF-2 fusion protein (New England Biolabs, 9224). Compounds were incubated under these conditions for 2 hours, at 25° C., prior to the initiation of the kinase activity by the addition of the 250 μM ATP. Reaction volumes were 20 uL. After 1 hr at 25° C. reactions were stopped by the adding 10 uL of 25 mM HEPES pH 7.5 containing 62.5 mM EDTA, 0.05% Triton X-100, 10% BSA and 0.83 ng/uL anti-phospho-ATF2 antibody (Abeam, ab28812). Detection was performed by measuring luminescence following the addition of Alphascreen Donor beads (Perkin Elmer 6765300) and Protein A Alphascreen Acceptor beads (Perkin Elmer 6760137), both at a final concentration of 20 ug/ml. IC50 values were determined from concentration-response curves.

T1 sequence (Q16539 whole entry): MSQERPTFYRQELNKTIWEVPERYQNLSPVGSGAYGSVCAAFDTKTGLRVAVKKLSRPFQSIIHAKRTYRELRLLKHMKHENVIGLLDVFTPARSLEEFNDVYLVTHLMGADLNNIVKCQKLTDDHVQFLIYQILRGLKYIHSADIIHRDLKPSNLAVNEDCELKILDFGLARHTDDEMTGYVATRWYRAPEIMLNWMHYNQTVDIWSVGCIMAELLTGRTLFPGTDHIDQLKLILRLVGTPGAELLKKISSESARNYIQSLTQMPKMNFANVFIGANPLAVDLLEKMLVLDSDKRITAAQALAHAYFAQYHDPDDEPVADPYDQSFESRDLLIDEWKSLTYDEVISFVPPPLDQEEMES

| IC50 | SMILES |
| --- | --- |
| < 10 nM | Cc1ccc(-n2nc(C(C)(C)C)cc2NC(=O)N[C@H]2CC[C@@H](Oc3ccc4nnc(CCN5CCCC5)n4c3)c3ccccc32)cc1 [Example 1, 1-(5-tert-Butyl-2-p-tolyl-2H-pyrazol-3-yl)-3-{(1S,4R)-4-[3-(2-pyrrolidin-1-yl-ethyl)-[1,2,4]triazolo[4,3-a]pyridin-6-yloxy]-1,2,3,4-tetrahydro-naphthalen-1-yl}-urea] |
| < 10 nM | Cc1ccc(-n2nc(C(C)(C)C)cc2NC(=O)N[C@H]2CC[C@@H](Oc3ccc4nnc(CCN5CCN(C)CC5)n4c3)c3ccccc32)cc1 [Example 2, 1-(5-tert-Butyl-2-p-tolyl-2H-pyrazol-3-yl)-3-((1S,4R)-4-{3-[2-(4-methyl-piperazin-1-yl)-ethyl]-[1,2,4]triazolo[4,3-a]pyridin-6-yloxy}-1,2,3,4-tetrahydro-naphthalen-1-yl)-urea formate salt] |
| < 10 nM | COCCN(C)Cc1cccc(-n2nc(C(C)(C)C)cc2NC(=O)N[C@H]2CC[C@@H](Oc3ccc4nnc(N5CCCC[C@@H]5C)n4c3)c3ccccc32)c1 [Example 168, 1-[5-tert-Butyl-2-(3-{[(2-methoxy-ethyl)-methyl-amino]-methyl}-phenyl)-2H-pyrazol-3-yl]-3-{(1S,4R)-4-[3-((S)-2-methyl-piperidin-1-yl)-[1,2,4]triazolo[4,3-a]pyridin-6-yloxy]-1,2,3,4-tetrahydro-naphthalen-1-yl}-urea formate salt] |
| < 10 nM | C[C@H]1CCCCN1c1nnc2ccc(O[C@@H]3CC[C@H](NC(=O)Nc4cc(C(C)(C)C)nn4-c4cccc(CN5CCC(F)CC5)c4)c4ccccc43)cn12 [Example 169, 1-{5-tert-Butyl-2-[3-(4-fluoro-piperidin-1-ylmethyl)-phenyl]-2H-pyrazol-3-yl}-3-{(1S,4R)-4-[3-((S)-2-methyl-piperidin-1-yl)-[1,2,4]triazolo[4,3-a]pyridin-6-yloxy]-1,2,3,4-tetrahydro-naphthalen-1-yl}-urea formate salt] |
| < 10 nM | C[C@H]1CCCCN1c1nnc2ccc(O[C@@H]3CC[C@H](NC(=O)Nc4cc(C(C)(C)C)nn4-c4cccc(CN(C)C)c4)c4ccccc43)cn12 [Example 170, 1-[5-tert-Butyl-2-(3-dimethylaminomethyl-phenyl)-2H-pyrazol-3-yl]-3-{(1S,4R)-4-[3-((S)-2-methyl-piperidin-1-yl)-[1,2,4]triazolo[4,3-a]pyridin-6-yloxy]-1,2,3,4-tetrahydro-naphthalen-1-yl}-urea formate salt] |
| < 10 nM | C[C@H]1CCCCN1c1nnc2ccc(O[C@@H]3CC[C@H](NC(=O)Nc4cc(C(C)(C)C)nn4-c4cccc(CN5CCCC5)c4)c4ccccc43)cn12 [Example 171, 1-[5-tert-Butyl-2-(3-pyrrolidin-1-ylmethyl-phenyl)-2H-pyrazol-3-yl]-3-{(1S,4R)-4-[3-((S)-2-methyl-piperidin-1-yl)-[1,2,4]triazolo[4,3-a]pyridin-6-yloxy]-1,2,3,4-tetrahydro-naphthalen-1-yl}-urea formate salt] |
| < 10 nM | C[C@H]1CCCCN1c1nnc2ccc(O[C@@H]3CC[C@H](NC(=O)Nc4cc(C(C)(C)C)nn4-c4ccc(CN5CCOCC5)cc4)c4ccccc43)cn12 [Example 176, 1-[5-tert-Butyl-2-(4-morpholin-4-ylmethyl-phenyl)-2H-pyrazol-3-yl]-3-{(1S,4R)-4-[3-((S)-2-methyl-piperidin-1-yl)-[1,2,4]triazolo[4,3-a]pyridin-6-yloxy]-1,2,3,4-tetrahydro-naphthalen-1-yl}-urea] |
| < 10 nM | C[C@H]1CCCCN1c1nnc2ccc(O[C@@H]3CC[C@H](NC(=O)Nc4cc(C(C)(C)C)nn4-c4ccc(CN5CCN(C)CC5)cc4)c4ccccc43)cn12 [Example 178, 1-{5-tert-Butyl-2-[4-(4-methyl-piperazin-1-ylmethyl)-phenyl]-2H-pyrazol-3-yl}-3-{(1S,4R)-4-[3-((S)-2-methyl-piperidin-1-yl)-[1,2,4]triazolo[4,3-a]pyridin-6-yloxy]-1,2,3,4-tetrahydro-naphthalen-1-yl}-urea partial formate salt] |
| < 10 nM | C[C@H]1CCCCN1c1nnc2ccc(O[C@@H]3CC[C@H](NC(=O)Nc4cc(C(C)(C)C)nn4-c4ccc(CN5CCCC5)cc4)c4ccccc43)cn12 [Example 181, 1-[5-tert-Butyl-2-(4-pyrrolidin-1-ylmethyl-phenyl)-2H-pyrazol-3-yl]-3-{(1S,4R)-4-[3-((S)-2-methyl-piperidin-1-yl)-[1,2,4]triazolo[4,3-a]pyridin-6-yloxy]-1,2,3,4-tetrahydro-naphthalen-1-yl}-urea formate salt] |
| < 10 nM | C[C@H]1CCCCN1c1nnc2ccc(O[C@@H]3CC[C@H](NC(=O)Nc4cc(C(C)(C)C)nn4-c4ccc(CN5CCCCC5)cc4)c4ccccc43)cn12 [Example 182, 1-[5-tert-Butyl-2-(4-piperidin-1-ylmethyl-phenyl)-2H-pyrazol-3-yl]-3-{(1S,4R)-4-[3-((S)-2-methyl-piperidin-1-yl)-[1,2,4]triazolo[4,3-a]pyridin-6-yloxy]-1,2,3,4-tetrahydro-naphthalen-1-yl}-urea formate salt] |
| < 10 nM | C[C@H]1CCCCN1c1nnc2ccc(O[C@@H]3CC[C@H](NC(=O)Nc4cc(C(C)(C)C)nn4-c4ccc(CN5CCC(F)CC5)cc4)c4ccccc43)cn12 [Example 183, 1-{5-tert-Butyl-2-[4-(4-fluoro-piperidin-1-ylmethyl)-phenyl]-2H-pyrazol-3-yl}-3-{(1S,4R)-4-[3-((S)-2-methyl-piperidin-1-yl)-[1,2,4]triazolo[4,3-a]pyridin-6-yloxy]-1,2,3,4-tetrahydro-naphthalen-1-yl}-urea formate salt] |
| < 10 nM | CCN(C)Cc1ccc(-n2nc(C(C)(C)C)cc2NC(=O)N[C@H]2CC[C@@H](Oc3ccc4nnc(N5CCCC[C@@H]5C)n4c3)c3ccccc32)cc1 [Example 184, 1-(5-tert-Butyl-2-{4-[(ethyl-methyl-amino)-methyl]-phenyl}-2H-pyrazol-3-yl)-3-{(1S,4R)-4-[3-((S)-2-methyl-piperidin-1-yl)-[1,2,4]triazolo[4,3-a]pyridin-6-yloxy]-1,2,3,4-tetrahydro-naphthalen-1-yl}-urea formate salt] |
| < 10 nM | COCCN(C)Cc1ccc(-n2nc(C(C)(C)C)cc2NC(=O)N[C@H]2CC[C@@H](Oc3ccc4nnc(N5CCCC[C@@H]5C)n4c3)c3ccccc32)cc1 [Example 185, 1-[5-tert-Butyl-2-(4-{[(2-methoxy-ethyl)-methyl-amino]-methyl}-phenyl)-2H-pyrazol-3-yl]-3-{(1S,4R)-4-[3-((S)-2-methyl-piperidin-1-yl)-[1,2,4]triazolo[4,3-a]pyridin-6-yloxy]-1,2,3,4-tetrahydro-naphthalen-1-yl}-urea formate salt] |

Reference: patent publication US9315503B2, “Kinase inhibitors” (CHIESI FARMACEUTICI S.p.A., priority 2011, dated 2016)
